{
  "source": "patent US6255497A",
  "about": "“Method for the inhibition of ALDH-I useful in the treatment of alcohol dependence or alcohol abuse” (priority 1998, dated 2001)",
  "key": {"[1]": {"test_system": "golden hamsters", "assay": "Effect of daidzin on free choice ethanol intake in golden hamsters", "type": "in vivo, golden hamster", "settings": "10 mg/day", "source_text": "Hamsters were chosen as described in Example 4 based on previous reports that they display high ethanol intake and preference in comparison with several other mammalian species, and that this was correlated with differences in ethanol metabolism. Kulkosky and Cornell, 1979, supra.\nThe animals used in these experiments are adult male golden hamsters (outbred, Lakeview Lak: LVG[SYR]), purchased from Charles River Laboratories, Wilmington, Mass. 01887. Upon arrival, hamsters are housed (4 per cage) with ad libitum access to food and tap water in a room maintained at 23° C. on a 12/12 light/dark cycle (light on 0600-1800 hr.) for 1 week. Following this acclimation period, each hamster is transferred to an individual stainless steel metabolic cage (26×18×17.5 cm) with a wire mesh floor for the remainder of the experiment. Each cage is equipped with a stainless steel food hopper located on the right side of the front wall which was kept filled with food. Two 50 ml drinking bottles fitted with stainless steel sipper tubes are placed on the left side of the front wall. Under the sipper tubes are funnels which collect and direct spillage to tubes placed outside of the cages. Fluids are provided mainly during the dark cycle (1800-0800 hr.) and fluid intake is measured in the morning at the same time each day, for example, at 0800 hr. During this baseline period, for example, 8 days, two drinking solutions are provided for each animal. One is tap water; the other is a 30% v/v solution of ethanol (100% USP). The position of the two drinking bottles on each cage is alternated daily to prevent the development of positional preference.\nIn other experiments, subcutaneous administration is preferably omitted, and each hamster receives only daily oral administration by feeding as described herein. […] This decline in alcohol intake was accompanied by a concomitant increase in water intake."}, "[2]": {"target": "T1, ALDH-I (Homo sapiens, UniProt P05091)", "T1 sequence (P05091 18-517)": "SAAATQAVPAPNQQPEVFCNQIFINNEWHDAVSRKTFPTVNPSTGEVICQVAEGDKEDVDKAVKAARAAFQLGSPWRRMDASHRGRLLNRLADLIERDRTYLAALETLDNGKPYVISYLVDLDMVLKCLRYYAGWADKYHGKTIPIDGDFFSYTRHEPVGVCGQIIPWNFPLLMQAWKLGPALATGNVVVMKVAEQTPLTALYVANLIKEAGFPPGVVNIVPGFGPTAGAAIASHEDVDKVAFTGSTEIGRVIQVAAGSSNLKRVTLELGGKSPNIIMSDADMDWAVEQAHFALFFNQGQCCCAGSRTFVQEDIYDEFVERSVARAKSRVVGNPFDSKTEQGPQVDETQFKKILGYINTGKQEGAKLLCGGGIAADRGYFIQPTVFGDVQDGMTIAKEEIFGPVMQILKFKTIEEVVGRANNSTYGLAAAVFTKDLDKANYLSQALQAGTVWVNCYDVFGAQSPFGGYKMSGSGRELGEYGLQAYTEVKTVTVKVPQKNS", "assay": "Reversibility of ALDH-I inhibition (preincubation, then dilution)", "type": "biochemical", "design": "A liver sample (50 g wet weight) with the usual Caucasian ALDH phenotype (both ALDH-I and ALDH-II present); from tissue; host or cells: human liver (autopsy), purified by CM-52, AMP-agarose and DEAE HPLC"}, "[3]": {"test_system": "mice", "settings": "subcutaneous in propylene glycol; cited from earlier work"}, "[4]": {"target": "T1, ALDH-I", "assay": "Inhibition kinetics of ALDH-I, initial velocity method, formaldehyde as substrate", "settings": "from Ki values of Table II", "method": "The kinetic data were analyzed by standard graphical methods."}, "[5]": {"assay": "Solubility in water / aqueous media"}, "[6]": {"test_system": "rats", "settings": "subcutaneous in propylene glycol; cited from earlier work"}},
  "data": [
    {"molecule": "O=c1c(-c2ccc(O)cc2)coc2cc(O[C@@H]3O[C@H](CO)[C@@H](O)[C@H](O)[C@H]3O)ccc12", "note": "[Daidzin, 7-glucoside of daidzein]", "values": [
      {"measurement": "effect apparent after the first dose, hamster Number 9", "setting": "[1]", "value": "fourth day after the first dose"},
      {"measurement": "start of decline of alcohol intake after the first dose, hamster Number 6", "setting": "[1]", "value": 2, "unit": "days"},
      {"measurement": "total fluid intake during daidzin administration", "setting": "[1]; hamster Number 6", "value": "slightly decreased"},
      {"measurement": "total water intake (water bottle plus water in ethanol mixture)", "setting": "[1]; hamster Number 6", "value": "stayed nearly constant"},
      {"measurement": "reversibility of ALDH-I inhibition", "setting": "[2]", "value": "reversible"},
      {"measurement": "inhibition at 0.001 µM", "setting": "[2]; read-out: final inhibition after 100-fold dilution", "value": 2, "unit": "%"},
      {"measurement": "inhibition at 0.1 µM", "setting": "[2]; read-out: inhibition after preincubation with daidzin", "value": 70, "unit": "%"},
      {"measurement": "spasmolytic effect", "setting": "[3]", "value": "no spasmolytic effect"},
      {"measurement": "more effective inhibition of human ALDH-I than of human ALDH-II", "setting": "[4]", "value": 500, "unit": "fold"},
      {"measurement": "solubility in polyethylene glycol 400", "setting": "[5]; PEG 400", "value": "highly soluble"},
      {"measurement": "solubility in glycerol", "setting": "[5]; glycerol", "value": "highly soluble"},
      {"measurement": "antifebrile (hypothermic) effect", "setting": "[6]", "value": "no antifebrile (hypothermic) effect"}
    ]}
  ]
}
